Some results are limits rather than exact numbers.

One may read the IC50 as the concentration needed to halve the response being measured. Usually EC50 stands for the midpoint of the concentration-response curve.

The target of assay [1] is T1, PD-L1 on CD14+ cells in human whole blood (Homo sapiens, UniProt Q9NZQ7).
T1 construct: Cells were gated on CD14+ (BD Biosciences) and PD-L1 expression determined by mean fluorescence intensity; host or cells: CD14+ cells in normal human whole blood, stimulated with human interferon gamma
Briefly: PD-L1 whole blood internalization assay. The assay is classed as cell-based. Conditions: 1 ng/mL interferon γ, CD14+ gated, 24 hour. How it is done: PD-L1 Whole Blood Internalization Assay
To determine PD-L1 internalization in human whole blood, normal human blood (Biological Specialty Corp, Colmar. PA) was incubated in the presence or absence of a concentration range of test compounds and 1 ng/mL human interferon γ (R&D Systems Inc. Minn. MN) in a 96 well “2 mL Assay Block” (Corning, Corning NY) for 18-20 hours at 37 °C. Blood was then stained with PD-L1 (MIH1, eBioscience; or BD Biosciences San Jose, CA), CD14 (Life Technologies, Carlsbad, CA) for 30 minutes in the dark at room temperature. Whole Blood/red cells were lysed/fixed (lysis buffer BD Biosciences) for 5 minutes at 37 °C in the dark and then centrifuged at 1600 RPM for 5 minutes. Cells were resuspended in Stain Buffer (BD Bioscience, San Jose, CA) and transferred into 96 well round bottom plates (Coming). Cells were gated on CD14+ (BD Biosciences) and PD-L1 expression determined by mean fluorescence intensity (MFI) (BD LSRFortessa® X-20). IC50 determination was performed by fitting the curve of compound percent inhibition versus the log of the compound concentration using the GraphPad Prism 7.0 software.

Assay [2] has as its system PD-L1 (PD-L1 aAPC/CHO-K1 cells, Jurkat-PD-1-NFAT effector cells). Briefly: Nuclear Factor of Activated T-cells (NFAT) assay. Conditions: Cricetulus griseus; PD-L1 aAPC/CHO-K1 + Jurkat-PD-1-NFAT cells, 24 hours. The assay is classed as cell-based. How it is done:
Nuclear Factor of Activated T-cells (NFAT) Assay
PD-L1 aAPC/CHO-K1cells (Promega) were maintained in F-12 medium with addition of 10% FBS, 200 µg/mL Hygromycin B, 250 µg/mL Geneticin (G418). […] The culture media of PD-L1 aAPC/CHO-K1 cells were first replaced with assay medium (RPMI1640 medium with 1% FBS). The PD-L1 aAPC/CHO-K1cells were then added in a white 384-well white clear bottom assay plate (CELLCOAT® Tissue Culture Plates, Greiner Bio-One) at 8000 per well in 10 uL assay medium. […] 5 uL compounds in the assay medium were transferred to the cells with 0.4% DMSO in the final assay at 2 µM. After removing the culture media, 10,000 Jurkat-PD-1-NFAT effector cells in 5 µL assay medium was dispensed into each well. The assay plate was incubated at 37° C., 5% CO2 for 24 hours. […] After 8 minutes incubation at room temperature, luminescence was read at with Pherastar microplate reader (BMG Labtech). The fold of induction (FOI) was calculated based on the ratio of luminescence normalized to the DMSO wells within each assay plate. The maximum percentage of induction was reported based on the ratio between the highest FOI of each compound and the maximum FOI of control compound within each assay plate. Wells with DMSO were served as the negative controls and wells containing control compound with the highest FOI were used as positive controls. EC50 determination was performed by fitting the curve of percent control activity versus the log of the compound concentration using the GraphPad Prism 6.0 software.

For assay [3], the system named is PD-L1 (U2OS/PD-L1 cells, Jurkat-PD-1-SHP cells). Briefly: Src Homology Region 2 Domain-containing Phosphatase (SHP) assay. The assay is classed as cell-based. Conditions: Homo sapiens; U2OS/PD-L1 + Jurkat-PD-1-SHP cells, 2 hours. How it is done: Example 1B. Src Homology Region 2 Domain-containing Phosphatase (SHP) Assay
U2OS/PD-L1 cells (DiscoveRx Corporation) were maintained in McCoy’s 5A medium with addition of 10% FBS, 0.25 µg/mL Puromycin. After removing the culture media, the cell medium was replaced with assay medium (RPMI1640 medium with 1% FBS). The U2OS/PD-L1 cells were then added in 384-well black clear bottom assay plate (CELLCOAT® Tissue Culture Plates, Greiner Bio-One) at 5000 cells per well in 20 uL assay medium. Test compounds were prepared by serial dilution in DMSO and 125 nL compound were first transferred to the 384 REMP plate well (Thermofisher) by ECHO liquid handler (Labcyte) followed with addition of 27.5 uL assay medium. 5 µL/well compounds in the assay medium were transferred to the cell plate with 0.05% DMSO in the final assay at 0.25 µM. Jurkat-PD-1-SHP cells (DiscoveRx Corporation) were cultured in RPMI1640 medium supplemented with 10% FBS, 250 µg/mL Hygromycin B, 500 µg/mL G418. After the replacement of culture media with assay medium, 5,000 Jurkat-PD-1-SHP cells in 20 µL were dispensed into each well. The assay plate was incubated at 37° C., 5% CO2 for 2 hours before 2.5 uL PathHunter reagent 1 (DiscoveRx Corporation) were added to each well. The assay plate was shaken for 1 min at 350 rpm in the dark followed with addition of 10 uL PathHunter reagent 2 (DiscoveRx Corporation). Chemiluminescent signal was recorded with TopCount reader (Perkin Elmer) after incubation at room temperature for 1 hour. Wells with DMSO were served as the positive controls and wells containing no cells were used as negative controls. IC50 determination was performed by fitting the curve of percentage of control activity versus the log of the compound concentration using the GraphPad Prism 6.0 software.

The target in assay [4] is T2, PD-⅟PD-L1 (recombinant human PD-L1 protein and human PD-1 protein) (Homo sapiens, UniProt Q9NZQ7).
T2 construct: Recombinant human PD-L1 protein (19-238) with a His-tag at the C-terminus; purchased AcroBiosystems PD1-H5229 (PD-L1); PD1-H5257 (PD-1)
Briefly: Homogeneous Time-Resolved Fluorescence (HTRF) PD-1/PD-L1 binding assay. Conditions: 3 nM PD1, 10 nM PD-L1, 25° C., PBS pH 7.4. How it is done: Homogeneous Time-Resolved Fluorescence (HTRF) PD-⅟PD-L1 Binding Assay
The assays were conducted in a standard black 384-well polystyrene plate with a final volume of 20 uL. Inhibitors were first serially diluted in DMSO and then added to the plate wells before the addition of other reaction components. The final concentration of DMSO in the assay was 1%. The assays were carried out at 25° C. in the PBS buffer (pH 7.4) with 0.05% Tween-20 and 0.1% BSA. […] PD-L1 and PD-1 proteins were diluted in the assay buffer and 10 uL was added to the plate well. Plates were centrifuged and proteins were preincubated with inhibitors for 40 minutes. The incubation was followed by the addition of 10 uL of HTRF detection buffer supplemented with Europium cryptate-labeled anti-human IgG (PerkinElmer-AD0212) specific for Fc and anti-His antibody conjugated to SureLight®-Allophycocyanin (APC, PerkinElmer-AD0059H). […] Final concentrations in the assay were - 3 nM PD1, 10 nM PD-L1, 1 nM europium anti-human IgG and 20 nM anti-His-Allophycocyanin. IC50 determination was performed by fitting the curve of percent control activity versus the log of the inhibitor concentration using the GraphPad Prism 5.0 software.

T2 sequence (Q9NZQ7 19-238): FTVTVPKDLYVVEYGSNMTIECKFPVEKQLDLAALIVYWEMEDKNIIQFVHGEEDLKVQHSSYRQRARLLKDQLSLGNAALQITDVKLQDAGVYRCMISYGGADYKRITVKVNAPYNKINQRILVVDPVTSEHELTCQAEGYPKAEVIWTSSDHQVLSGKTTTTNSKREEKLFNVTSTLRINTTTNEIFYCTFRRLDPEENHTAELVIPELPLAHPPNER
T1 sequence (Q9NZQ7 19-290): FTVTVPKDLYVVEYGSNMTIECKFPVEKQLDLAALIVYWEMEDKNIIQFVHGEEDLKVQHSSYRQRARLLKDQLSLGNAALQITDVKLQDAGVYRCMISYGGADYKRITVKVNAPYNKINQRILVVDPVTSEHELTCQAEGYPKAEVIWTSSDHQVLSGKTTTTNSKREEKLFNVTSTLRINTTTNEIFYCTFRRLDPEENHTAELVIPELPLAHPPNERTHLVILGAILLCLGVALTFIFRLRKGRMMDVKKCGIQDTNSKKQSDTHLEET

As for `Cc1c(Nc2nccc3cc(CN4CC[C@H](O)C4)cnc23)cccc1-c1cccc(-c2nc3cc(CN4CC[C@H](C(=O)O)C4)cc(C#N)c3o2)c1C` [Compound 3], the values for the IC50 in assay [1] and in assay [3] were below 500 nM and below 10 nM, respectively. Further, the EC50 in assay [2] is below 100 nM.
As for `Cc1c(Nc2nccc3cc(CN4CC[C@H](O)C4)cnc23)cccc1-c1cccc(-c2nc3cc(CN4CC[C@@H](C(=O)O)C4)cc(C#N)c3o2)c1C` [Compound 4, (R)-1-((7-cyano-2-(3′-(3-(((S)-3-hydroxypyrrolidin-1-yl)methyl)-1,7-naphthyridin-8-ylamino)-2,2′-dimethylbiphenyl-3-yl)benzo[d]oxazol-5-yl)methyl)pyrrolidine-3-carboxylic acid], the IC50 in assay [1] was below 500 nM; in assay [3], below 100 nM. The EC50 in assay [2] was below 100 nM.
As for `Cc1c(Nc2nccc3cc(CN4CC[C@@H](O)C4)cnc23)cccc1-c1cccc(-c2nc3cc(CN4CC[C@H](C(=O)O)C4)cc(C#N)c3o2)c1C` [Compound 5], the IC50 in assay [1] is below 500 nM; in assay [3], below 10 nM. Further, the EC50 in assay [2] was below 100 nM.
For `Cc1c(-c2nc3cc(CN4CCC(C(=O)O)CC4)cc(C#N)c3o2)cccc1-c1cccc(-c2nc3c(s2)CN(C(=O)CN(C)C)C3)c1C` [Compound 6, 1-((7-cyano-2-(3′-(5-(2-(dimethylamino)acetyl)-5,6-dihydro-4H-pyrrolo [3,4-d]thiazol-2-yl)-2,2′-dimethylbiphenyl-3-yl)benzo[d]oxazol-5-yl)methyl)piperidine-4-carboxylic acid], in that order: below 100 nM, below 10 nM and below 100 nM.
For `Cc1c(Nc2nccc3cc(CN4CC[C@@](C)(O)C4)cnc23)cccc1-c1cccc(NC(=O)c2nc3c(n2C)CCN(C[C@H]2CC[C@@H](C(=O)O)CC2)C3)c1Cl` [Compound 11, cis-4-((2-(2-chloro-3′-(3-(((R)-3-hydroay-3-methylpyrrolidin-1-yl)methyl)-1,7-naphthyridin-8-ylamino)-2′-methylbiphenyl-3-ylcarbamoyl)-1-methyl-6,7-dihydro-1H-imidazo[4,5-c]pyridin-5(4H)-yl)methyl)cyclohexanecarboxylic acid], the IC50 was below 100 nM in assay [1] and below 10 nM in assay [3]. For the same compound, the EC50 in assay [2] is below 100 nM.
As to `CCN(C)CC(=O)N1Cc2nc(-c3cccc(-c4cccc(Nc5nccc6cc(CN7CC[C@@H](C(=O)O)C7)cnc56)c4Cl)c3C)sc2C1` [Compound 13, (R)-1-((8-((2-chloro-3′-(5-(N-ethyl-N-methylglycyl)-5,6-dihydro-4H-pyrrolo[3,4-d]thiazol-2-yl)-2′-methyl-[1,1′-biphenyl]-3-yl)amino)-1,7-naphthyridin-3-yl)methyl)pyrrolidine-3-carboxylic acid], the IC50 in assay [1] was below 100 nM; in assay [3] it was below 10 nM. Besides, the EC50 in assay [2] is below 100 nM.
As to `Cc1c(-c2nc3c(s2)CN(C(=O)CN(C)C)C3)cccc1-c1cccc(-c2nc3c(s2)CN(C(=O)CN2CC[C@@H](O)C2)C3)c1C` [Compound 14, (R)-2-(dimethylamino)-1-(2-(3′-(5-(2-(3-hydroaypyrrolidin-1-yl)acetyl)-5,6-dihydro-4H-pyrrolo[3,4-d]thiazol-2-yl)-2,2′-dimethylbipheiryl-3-yl)-4H-pyrrolo [3,4-d]thiazol-5(6H)-yl)ethanone], the EC50 in assay [2] was below 500 nM. In assay [3], the IC50 was below 100 nM.
Turning to `Cc1c(Nc2nc(C(F)F)nc3cc(CN4CC[C@@H](O)C4)cnc23)cccc1-c1cccc(-c2nc3cc(CN4CC[C@@H](C(=O)O)C4)cc(C#N)c3o2)c1C` [Compound 25, (R)-1-((7-cyano-2-(3′-(2-(difluoromethyl)-7-(((R)-3-hydroxypyrrolidin-1-yl)methyl)pyrido[3,2-d]pyrimidin-4-ylamino)-2,2′-dimethylbiphenyl-3-yl)benzo [d]oxazol-5-yl)methyl)pyrrolidine-3-carboxylic acid], the IC50 in assay [1] was below 100 nM; in assay [4], below 10 nM. In addition, the EC50 in assay [2] is below 100 nM.
For the compound `Cc1c(Nc2nc(C(F)F)nc3cc(CN4CC[C@@](C)(O)C4)cnc23)cccc1-c1cccc(-c2nc3cc(CN4CCC(C(=O)O)CC4)cc(C#N)c3o2)c1C` [Compound 27, (R)-1-((7-cyano-2-(3′-(2-(difluoromethyl)-7-((3-hydroxy-3-methylpyrrolidin-1-yl)methyl)pyrido[3,2-d]pyrimidin-4-ylamino)-2,2′-dimethylbipheiryl-3-yl)benzo[d]oxazol-5-yl)methyl)piperidine-4-caiboxylic acid], the values for the IC50 in assay [1] and in assay [4] were below 100 nM and below 10 nM, respectively.
Turning to `Cc1c(Nc2nc(C(F)F)nc3cc(CN4CC[C@](C)(O)C4)cnc23)cccc1-c1cccc(-c2nc3cc(CN4CCC(C(=O)O)CC4)cc(C#N)c3o2)c1C` [Compound 28, (S)-1-((7-cyano-2-(3′-(2-(difluoromethyl)-7-((3-hydroxy-3-methylpyrrolidin-1-yl)methyl)pyrido[3,2-d]pyrimidin-4-ylamino)-2,2′-dimethylbipheiryl-3-yl)benzo[d]oxazol-5-yl)methyl)pipendine-4-carboxylic acid], the IC50 was below 100 nM in assay [1] and below 10 nM in assay [4].

Source of the values: US20230149409A1, “TREATMENT OF HUMAN PAPILLOMAVIRUS-ASSOCIATED CANCERS BY PD-L1 INHIBITORS” (priority 2021, published 2023).
